Laboratory results as given in US20230414715A1, “TRAIL COMPOUNDS FOR REDUCING CANCER TREAMENT SIDE EFFECTS” (BROWN UNIVERSITY, priority 2022, published 2023).

Key:
DR5-/- mice = test: Radiation pneumonitis after whole-thorax x-ray irradiation, H&E of lung, DR5-null mice; assay type: in vivo, mouse; conditions: 20 Gy
Protocol: (§1) However, before embarking on the planned experiment, we decided to perform a preliminary, short-term treatment feasibility experiment to ensure some mouse survival after 20 Gy of thoracic irradiation (FIG. 1B). The preliminary experiment was performed with WT and DR5-null mice that were irradiated with 20 Gy, and this was followed by either weekly doses of TIC10/ONC201 (100 mg/kg for total of two doses) or twice a week doses of TLY012 (10 mg/kg for total of four doses) for 2 weeks.
Animal studies were carried out at Brown University facilities with approval from Brown University IACUC. C57B1/6 mice (Taconic), mice with bi-allelic loss of TRAIL Death Receptor-(DR5-/-) in a C57B1/6 background, and mice with bi-allelic loss of TRAIL (TRAIL -/-) in a C57B1/6 background were given a single whole-thorax x-ray (Philips RT250) irradiation dose of 20 Gy with shielding of other organs. 8-15-week-old male and female mice of each genotype were used. […] Treatment was continued for two weeks, where TLY012 was administered twice a week and ONC201 was administered once a week. For each genetic background, two mice received a control PO, two mice received TLY012 IP, and two mice received ONC201 PO. Mice were weighed twice a week, and 13 days post-irradiation all mice were euthanized. Organs were harvested from the mice and 600 μL of blood was collected via cardiac puncture for serum cytokine analysis. […]

C57B1/6 mice = test: Radiation pneumonitis after whole-thorax x-ray irradiation, H&E of lung, wild-type mice; assay type: in vivo, mouse
Protocol: as §1
Animal studies were carried out at Brown University facilities with approval from Brown University IACUC. C57B1/6 mice (Taconic), mice with bi-allelic loss of TRAIL Death Receptor-(DR5-/-) in a C57B1/6 background, and mice with bi-allelic loss of TRAIL (TRAIL -/-) in a C57B1/6 background were given a single whole-thorax x-ray (Philips RT250) irradiation dose of 20 Gy with shielding of other organs. 8-15-week-old male and female mice of each genotype were used. […] Treatment was continued for two weeks, where TLY012 was administered twice a week and ONC201 was administered once a week. For each genetic background, two mice received a control PO, two mice received TLY012 IP, and two mice received ONC201 PO. Mice were weighed twice a week, and 13 days post-irradiation all mice were euthanized. Organs were harvested from the mice and 600 μL of blood was collected via cardiac puncture for serum cytokine analysis. Organs were preserved in 10% formalin then embedded in paraffin and sectioned at a distance of 5 μm. […] TRAIL-/- female mice were also subjected to a survival study with a single whole-thorax radiation doses of 15 Gy or 18 Gy treated with the same regimen of TLY012 or control (n=2/radiation dose/treatment) (FIG. 3B). In order to determine the lethal dose of radiation for C57B1/6 mice, female C57B1/6 mice were treated with a single dose of whole-thorax irradiation of 25 Gy in a survival study where they were treated with either TLY012 or remained control (n=6/treatment) (FIG. 3C).

[1] = system: lung tissue in irradiated C57B1/6 mice; test: Immunohistochemistry of irradiated lung tissue; assay type: in vivo, mouse
Description: Paraffin embedded sections of tissue were deparaffinized in xylene and rehydrated through graded ethanol solutions to phosphate-buffered saline (PBS). Heat-induced antigen retrieval (in 0.01 M citrate buffer; pH 6.0), endogenous peroxidase blocking (3% H202), and blocking were done using a standard protocol. […] Slides were developed with diaminobenzidine substrate (Vector Laboratories SK-4100) and counterstained with hematoxylin (Richard Allen Scientific). Slides were scanned (Olympus VS200) and representative brightfield images were taken and analyzed with OlyVIA software.

[2] = system: mRNA from mouse lung tissue; test: NanoString nCounter PanCancer Immune Profiling panel, mRNA from mouse lung tissue; assay type: in vivo
Protocol: One hour before radiation mice were grouped into control or given 10 mg/kg of TLY012 via IP injection (n=3/gender/treatment). Mice were treated and weighed twice a week up until 11 days post-radiation when all mice were euthanized.
Rodent sacrifice was performed following anesthetization with 100 mg/kg ketamine and 10 mg/kg xylazine administered intraperitoneally. ˜400-600 μL blood was first collected throughcardiac puncture with a 26G ⅝″ needle through the intercostal space into the left ventricle. […] 1 mL of 2 mg/mL EDTA in PBS was injected through the right ventricle to perfuse the lungs, after which the lungs were excised, washed further in PBS, submerged in RNAlater (Sigma-Aldrich, #R0901, Missouri, USA), and flash frozen in liquid nitrogen.
Frozen lung tissue was stored long-term at −80° C. Thawing was performed over 16 hours at 4° C. Tissue homogenization was performed with Precellys Lysing Kit (Cayman Chemical Company, #16859, Michigan, USA) and a Bulley Blender Homogenizer (Next Advance, #G14-G15) prior to RNA extraction with QlAgen RNeasy kit (Qiagen, #74104, Hilden, Germany) and cleaned up with QIAgen RNeasy MinElute Cleanup kit (Qiagen, #74204, Hilden, Germany). Quality and concentration were verified by Nanodrop. Extracted RNA samples were gene expression profiled by NanoString nCounter PanCancer Immune Profiling Panel (NanoString Technologies, #XTCSO-MIP1-12, Seattle, WA) according to the manufacturer's instructions.
Nanostring data was analyzed in nSolver Advanced Analysis Software and ROSALIND. Raw data was uploaded to nSolver for automated normalization, background subtraction, and quality control (QC) check. All samples passed QC. Control mice and mice treated with TLY012 lung samples were used to construct two groups to which an unpaired t-test was run to generate the data in the volcano plot that was created in ROSALIND (FIG. 5). Differential expression was determined with p-values and Benjamini-Yekutieli adjusted p-values. Pathway scores are generated in nSolver as a summarization of expression level changes of biologically related groups of genes. Pathway scores are derived from the first Principal Components Analysis (PCA) scores (1st eigenvectors) for each sample based on the individual gene expression levels for all the measured genes within a specific pathway. The cell type score itself is calculated as the mean of the log2 expression levels for all the probes included in the final calculation for that specific cell type.

[3] = irradiated rescued versus irradiated control lung tissues
[4] = normal or inflamed lung, treated versus irradiated control
[5] = all mice, treated versus control
[6] = lung, 20 Gy, relative to control

TLY012: N-terminal PEGylated recombinant human TRAIL; PEGylated trimeric TRAIL formulation
rescue from radiation pneumonitis (DR5-/- mice; DR5-/- mice, FIG. 2A, B): did not observe rescue | protection from pneumonitis (DR5-/- mice; DR5-null mice, preliminary experiment, 2 weeks treatment, FIG. 1C): lack of protection | protection from pneumonitis (C57B1/6 mice; WT mice, 20 Gy thoracic irradiation, preliminary experiment, 2 weeks treatment, versus irradiated control, FIG. 1C): qualitative evidence of protection from pneumonitis | rescue from radiation-induced pneumonitis (C57B1/6 mice; irradiated C57B1/6 mice, FIG. 2): could rescue mice from radiation-induced pneumonitis | NFkB [1, 3]: no differences | proliferation [1, 3]: no differences | DNA double strand break marker gamma-H2AX [1, 4]: no difference | T-cell infiltration (CD3-epsilon) [1, 4]: no difference | collagen in lungs ([1]; rescued lungs versus irradiated control): less collagen | genes with statistically significant differential expression ([2]; TRAIL-/- mice, 20 Gy, treated versus control): 16 | “Antigen Processing” pathway score [2, 5]: significant increases | “Interferon” pathway score [2, 5]: significant increases | “Antigen Processing” pathway score ([2]; female cohort): significant increases | “Basic Cell Functions” pathway score ([2]; female cohort): decrease | “Dendritic Cell Functions” pathway score ([2]; female cohort): significant increases | “MHC” pathway score ([2]; female cohort): significant increases | BCL6 mRNA [2, 6]: downregulated | CCL6 mRNA [2, 6]: upregulated | DOCKS mRNA [2, 6]: downregulated | FOXJ1 mRNA [2, 6]: downregulated | H2-Q2 mRNA [2, 6]: downregulated | HERC6 mRNA [2, 6]: upregulated | IKZF2 mRNA [2, 6]: downregulated | IL1RL2 mRNA [2, 6]: upregulated | KLRA7 mRNA [2, 6]: upregulated | MAPK8 mRNA [2, 6]: downregulated | PTGS2 mRNA [2, 6]: downregulated | RAET1A mRNA [2, 6]: downregulated | RELB mRNA [2, 6]: upregulated | RRAD mRNA [2, 6]: downregulated | TMEM173 mRNA [2, 6]: upregulated | TNFSF10 mRNA [2, 6]: upregulated
